Read-outs that look alike come from different tables or passages of the source.

The test system of assay [1] is mouse bone-marrow derived macrophages. The experiment in a line: CSF-1-driven mouse bone-marrow derived macrophages assay (BrDU incorporation). It counts as cell-based. To be noted: CSF-1-driven proliferation, 30 hrs culture. Here is the method:
Macrophages were derived by culturing mouse bone marrow in alpha-MEM supplemented with 10% FCS and 50 ng/ml recombinant mouse CSF-1 in bacteriologic dishes. On the sixth day, macrophages were detached from dishes, washed, and resuspended to 0.05 million cells/ml in alpha-MEM containing 10% FCS. One hundred ul of cell suspension were distributed per well into 96 well culture plates. Wells were further supplemented with the addition of 50 ul media containing 15 ng/ml CSF-1, 3 uM Indomethacin, and 3× of a dilution series of test compounds. The cells were cultured for 30 hrs at 37 degrees and 5% CO2. During the final six hours, cultures were supplemented with an additional 30 ul of media containing a 1:500 dilution of bromodeoxyuridine (BrDU). At the end of the culture period, the plates were spun at 1000 RPM for 1 minute and 130 ul of media was removed with a pipet and replaced with 150 ul of fixative solution for 1 hour@room temperature. The fixative was then dispelled from the plates and the plates allowed to air dry. Incorporation of BrDU into the fixed, dried cells was quantified using a specific ELISA.

The next assay deals with c-fms (Homo sapiens (Human), UniProt P07333). The experiment in a line: Autophosphorylation fluorescence polarization competition immunoassay for c-fms inhibition. Conditions: 10 nM c-fms, 1 mM ATP; average of three independent measurements. The format is biochemical. The procedure: The assay buffer used was 100 mM 4-(2-hydroxyethyl)piperazine1-ethanesulfonic acid (HEPES), pH 7.5, 1 mM 1,4-dithio-DL-threitol (DTT), 0.01% (v/v) Tween-20. Compounds were diluted in assay buffer containing 4% dimethylsulfoxide (DMSO) just prior to the assay. […] The kinase reaction was initiated by adding 2 μL of 5 mM ATP (Sigma) in assay buffer. The final concentrations in the assay were 10 nM c-fms, 1 mM ATP, 5 mM MgCl2, 2% DMSO. Control reactions were ran in each plate: in positive and negative control wells, assay buffer (made 4% in DMSO) was substituted for the compound; in addition, positive control wells received 1.2 μL of 50 mM ethylenediaminetetraaceticacid (EDTA). The plates were incubated at room temperature for 45 min. At the end of the incubation, the reaction was quenched with 1.2 μL of 50 mM EDTA (EDTA was not added to the positive control wells at this point; see above). Following a 5-min incubation, each well received 10 μL of a 1:1:3 mixture of anti-phosphotyrosine antibody, 10×, PTK green tracer, 10× (vortexed), FP dilution buffer, respectively (all from PanVera, cat. # P2837). The plate was covered, incubated for 30 min at room temperature and the fluorescence polarization was read on the Analyst. The instrument settings were: 485 nm excitation filter; 530 nm emission filter; Z height: middle of well; G factor: 0.93. […] The reported IC50 values are averages of three independent measurements.
Sequence of c-fms (P07333 20-972): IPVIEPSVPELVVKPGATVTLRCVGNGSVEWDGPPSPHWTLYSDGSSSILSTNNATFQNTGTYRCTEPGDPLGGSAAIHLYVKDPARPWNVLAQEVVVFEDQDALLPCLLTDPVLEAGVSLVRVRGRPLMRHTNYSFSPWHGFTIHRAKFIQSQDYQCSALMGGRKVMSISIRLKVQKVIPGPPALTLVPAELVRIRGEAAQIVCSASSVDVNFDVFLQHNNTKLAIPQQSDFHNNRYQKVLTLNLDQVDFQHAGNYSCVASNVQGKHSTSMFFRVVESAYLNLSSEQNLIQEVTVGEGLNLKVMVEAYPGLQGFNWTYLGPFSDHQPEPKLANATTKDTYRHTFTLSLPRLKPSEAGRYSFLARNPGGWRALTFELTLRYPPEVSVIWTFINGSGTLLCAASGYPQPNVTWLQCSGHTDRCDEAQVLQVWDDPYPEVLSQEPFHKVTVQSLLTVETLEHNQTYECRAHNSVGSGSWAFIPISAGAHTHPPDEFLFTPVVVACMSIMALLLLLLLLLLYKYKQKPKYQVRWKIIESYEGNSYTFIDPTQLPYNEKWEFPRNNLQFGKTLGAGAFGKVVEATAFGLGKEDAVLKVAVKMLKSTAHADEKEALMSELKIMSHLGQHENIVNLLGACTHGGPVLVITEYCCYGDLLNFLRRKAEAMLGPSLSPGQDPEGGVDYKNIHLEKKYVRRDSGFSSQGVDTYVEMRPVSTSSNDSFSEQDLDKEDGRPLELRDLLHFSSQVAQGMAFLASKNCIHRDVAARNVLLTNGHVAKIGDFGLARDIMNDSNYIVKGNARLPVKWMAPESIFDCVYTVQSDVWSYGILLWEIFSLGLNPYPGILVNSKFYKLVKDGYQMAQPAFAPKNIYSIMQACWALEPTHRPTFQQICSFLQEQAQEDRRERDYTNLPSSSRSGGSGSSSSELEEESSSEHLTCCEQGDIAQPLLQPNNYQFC

With `COC[C@@]12C=C[C@@](COC)(C[C@](O)(c3ccc(NC(=O)c4nc(C#N)c[nH]4)c(C4=CCC(C)(C)CC4)c3)C1)O2` [Example 1, 4-Cyano-1H-imidazole-2-carboxylic acid[2-(4,4-dimethyl-cyclohex-1-enyl)-4-[(3-exo)-3-hydroxy-1,5-bis-methoxymethyl-8-oxa-bicyclo[3.2.1]oct-6-en-3-yl]-phenyl]-amide], the IC50 was determined as 3.2 nM in assay [1] (Mus musculus, BMDM) and 0.86 nM on c-fms.
`CC1(C)CC=C(c2cc([C@]3(O)C[C@@]4(CO)C=C[C@@](CO)(C3)O4)ccc2NC(=O)c2nc(C#N)c[nH]2)CC1` [Example 2, 4-Cyano-1H-imidazole-2-carboxylic acid[2-(4,4-dimethyl-cyclohex-1-enyl)-4-((3-exo)-3-hydroxy-1,5-bis-hydroxymethyl-8-oxa-bicyclo[3.2.1]oct-6-en-3-yl)-phenyl]-amide] registered an IC50 in assay [1] (Mus musculus, BMDM) of 37 nM.
With `CC1(C)CC=C(c2cc(C3=C[C@@]4(CO)C=C[C@@](CO)(C3)O4)ccc2NC(=O)c2nc(C#N)c[nH]2)CC1` [Example 3, 4-Cyano-1H-imidazole-2-carboxylic acid[4-(1,5-bis-hydroxymethyl-8-oxa-bicyclo[3.2.1]octa-2,6-dien-3-yl)-2-(4,4-dimethyl-cyclohex-1-enyl)-phenyl]-amide], the half-maximal inhibitory concentration (IC50) in assay [1] (Mus musculus, BMDM) was 9.3 nM; at c-fms it was 0.65 nM.
Taken in the same sequence, the figures for `CC1(C)CC=C(c2cc([C@H]3C[C@]4(CO)CC[C@](CO)(C3)O4)ccc2NC(=O)c2nc(C#N)c[nH]2)CC1` [Example 4, 4-Cyano-1H-imidazole-2-carboxylic acid[4-[(3-exo)-1,5-bis-hydroxymethyl-8-oxa-bicyclo[3.2.1]oct-3-yl]-2-(4,4-dimethyl-cyclohex-1-enyl)-phenyl]-amide] were 6.6 nM and 0.72 nM.
`CC1(C)CC=C(c2cc([C@@H]3C[C@]4(CO)CC[C@](CO)(C3)O4)ccc2NC(=O)c2nc(C#N)c[nH]2)CC1` [Example 5, 4-Cyano-1H-imidazole-2-carboxylic acid[4-[(3-endo)-1,5-bis-hydroxymethyl-8-oxa-bicyclo[3.2.1]oct-3-yl]-2-(4,4-dimethyl-cyclohex-1-enyl)-phenyl]-amide]: the IC50 in assay [1] (Mus musculus, BMDM) amounted to 4.7 nM; at c-fms, 0.47 nM.
As for `COC[C@@]12CC[C@@](COC)(C[C@@H](c3ccc(NC(=O)c4nc(C#N)c[nH]4)c(C4=CCC(C)(C)CC4)c3)C1)O2` [Example 6, 4-Cyano-1H-imidazole-2-carboxylic acid[4-[(3-endo)-1,5-bis-methoxymethyl-8-oxa-bicyclo[3.2.1]oct-3-yl]-2-(4,4-dimethyl-cyclohex-1-enyl)-phenyl]-amide], the IC50 in assay [1] (Mus musculus, BMDM) worked out at 5 nM; on c-fms, 2.7 nM.
Taken in the same sequence, the figures for `COC[C@@]12CC[C@@](COC)(C[C@H](c3ccc(NC(=O)c4nc(C#N)c[nH]4)c(C4=CCC(C)(C)CC4)c3)C1)O2` [Example 7, 4-Cyano-1H-imidazole-2-carboxylic acid[4-((3-exo)-1,5-bis-methoxymethyl-8-oxa-bicyclo[3.2.1]oct-3-yl)-2-(4,4-dimethyl-cyclohex-1-enyl)-phenyl]-amide] were 3.3 nM and 2 nM.
The matching figures for `CC1(C)CC=C(c2cc([C@@]3(O)C[C@]4(CO)CC[C@](CO)(C3)O4)ccc2NC(=O)c2nc(C#N)c[nH]2)CC1` [Example 8, 4-Cyano-1H-imidazole-2-carboxylic acid[2-(4,4-dimethyl-cyclohex-1-enyl)-4-[(3-exo)-3-hydroxy-1,5-bis-hydroxymethyl-8-oxa-bicyclo[3.2.1]oct-3-yl]-phenyl]-amide]: 41 nM and 0.42 nM.
For the compound `CC1(C)CC=C(c2cc([C@@]3(O)C[C@]4(C)C=C[C@](C)(C3)O4)ccc2NC(=O)c2nc(C#N)c[nH]2)CC1` [Example 9, 4-Cyano-1H-imidazole-2-carboxylic acid[2-(4,4-dimethyl-cyclohex-1-enyl)-4-((3-exo)-3-hydroxy-1,5-dimethyl-8-oxa-bicyclo[3.2.1]oct-6-en-3-yl)-phenyl]-amide], the IC50 amounted to 4.8 nM in assay [1] (Mus musculus, BMDM) and 1.1 nM on c-fms.
The matching figures for `COC(=O)N1[C@@]2(C)C=C[C@]1(C)C[C@@](O)(c1ccc(NC(=O)c3nc(C#N)c[nH]3)c(C3=CCC(C)(C)CC3)c1)C2` [Example 10, 3-(3-exo)-[4-[(4-Cyano-1H-imidazole-2-carbonyl)-amino]-3-(4,4dimethyl-cyclohex-1-enyl)-phenyl]-(3-exo)-3-hydroxy-1,5-dimethyl-8-aza-bicyclo[3.2.1]oct-6-ene-8-carboxylic acid methyl ester]: 40 nM and 3.5 nM.
In the case of `CC1(C)CC=C(c2cc([C@@]3(O)C[C@@]4(C)O[C@@](C)(C3)[C@@H]3OC(C)(C)O[C@@H]34)ccc2NC(=O)c2nc(C#N)c[nH]2)CC1` [Example 11, 4-Cyano-1H-imidazole-2-carboxylic acid[2-(4,4-dimethyl-cyclohex-1-enyl)-4-[(3-exo)-3-hydroxy-1,5-dimethyl-6-exo,7-exo-(dimethylmethylenedioxy)-bicyclo[3.2.1]oct-3-yl]-phenyl]-amide], the IC50 in assay [1] (Mus musculus, BMDM) stood at 2.5 nM; on c-fms, 1.8 nM.
The matching figures for `CC1(C)CC=C(c2cc([C@@]3(O)C[C@@]4(C)O[C@@](C)(C3)[C@H](O)[C@@H]4O)ccc2NC(=O)c2nc(C#N)c[nH]2)CC1` [Example 12]: 36 nM and 0.66 nM.
The matching figures for `CC1(C)CC=C(c2cc([C@@H]3C[C@@]4(C)O[C@@](C)(C3)[C@H](O)[C@@H]4O)ccc2NC(=O)c2nc(C#N)c[nH]2)CC1` [Example 13, 4-Cyano-1H-imidazole-2-carboxylic acid[4-(3-endo)-(6-exo,7-exo-dihydroxy-1,5-dimethyl-8-oxa-bicyclo[3.2.1]oct-3-yl)-2-(4,4-dimethyl-cyclohex-1-enyl)-phenyl]-amide]: 2.9 nM and 0.81 nM.
In the case of `CC1(C)CC=C(c2cc(C3C[C@](C)(CO)O[C@](C)(CO)C3)ccc2NC(=O)c2ncc(C#N)[nH]2)CC1` (stereo partly drawn) [Example 14, 4-Cyano-1H-imidazole-2-carboxylic acid[4-cis-(2-cis,6-cis-bis-hydroxymethyl-2,6-dimethyl-tetrahydro-pyran-4-yl)-2-(4,4-dimethyl-cyclohex-1-enyl)-phenyl]-amide (A) and 4-Cyano-1H-imidazole-2-carboxylic acid[4-trans-(2-cis,6-cis-bis-hydroxymethyl-2,6-dimethyl-tetrahydro-pyran-4-yl)-2-(4,4dimethyl-cyclohex-1-enyl)-phenyl]-amide (B)], the values for the IC50 (in assay [1] (read-out: BMDM IC50); on c-fms) were 4.7 nM and 1.1 nM, respectively.
As to `CC1(C)CC(c2ccc(NC(=O)c3nc(C#N)c[nH]3)c(C3=CCCCC3)n2)CC(C)(C)O1` [Example 16, 4-Cyano-1H-imidazole-2-carboxylic acid[2-cyclohex-1-enyl-6-(2,2,6,6-tetramethyl-tetrahydro-pyran-4-yl)-pyridin-3-yl]-amide], the concentration for half-maximal inhibition (IC50) was determined as 8.2 nM in assay [1] (Mus musculus, BMDM) and 1.4 nM on c-fms.
Taken in the same sequence, the figures for `CC1(C)CC=C(c2nc([C@H]3C[C@@]4(C)O[C@@](C)(C3)[C@@H]3OC(C)(C)O[C@@H]34)ccc2NC(=O)c2nc(C#N)c[nH]2)CC1` [Example 17, 4-Cyano-1H-imidazole-2-carboxylic acid[6-[(3-exo)-6-exo,7-exo-(isopropylidinedioxy)-1,5-dimethyl-8-oxa-bicyclo[3.2.1]oct-3-yl]-2-(4,4-dimethyl-cyclohex-1-enyl)-pyridin-3-yl]-amide] were 37 nM and 4.6 nM.
Take `C[C@@H]1C2(C)C=C[C@@](C)(O2)[C@H](C)[C@@]1(O)c1ccc(NC(=O)c2nc(C#N)c[nH]2)c(C2=CCC(C)(C)CC2)c1` [Example 30, 4-Cyano-N-(2-(4,4dimethylcyclohex-1-enyl)-4-[(3-exo)-3-hydroxy-(2-endo,4-endo-dimethyl)-1,5-dimethyl-8-oxabicyclo[3.2.1]oct-6-en-3-yl)phenyl)-1H-imidazole-2-carboxamide]: on c-fms, the IC50 came to 99 nM.

Values taken from patent US8497376B2, “Inhibitors of c-fms kinase” (Janssen Pharmaceutica N.V., priority 2007, dated 2013).
